Data published in PMC11668362, “On the function of TRAP substrate-binding proteins: the isethionate-specific binding protein IseP” (Biochemical Journal, 2024).

target: T1, OaIseP (isethionate-specific TRAP substrate-binding protein IseP) (Oleidesulfovibrio alaskensis, UniProt Q312S0); test: X-ray crystal structure ([…] Å), open conformation; no significant DSF shift at […]; set-up: gene dctP; details: not given
Target sequence in this assay (Q312S0 24-336 limits assumed): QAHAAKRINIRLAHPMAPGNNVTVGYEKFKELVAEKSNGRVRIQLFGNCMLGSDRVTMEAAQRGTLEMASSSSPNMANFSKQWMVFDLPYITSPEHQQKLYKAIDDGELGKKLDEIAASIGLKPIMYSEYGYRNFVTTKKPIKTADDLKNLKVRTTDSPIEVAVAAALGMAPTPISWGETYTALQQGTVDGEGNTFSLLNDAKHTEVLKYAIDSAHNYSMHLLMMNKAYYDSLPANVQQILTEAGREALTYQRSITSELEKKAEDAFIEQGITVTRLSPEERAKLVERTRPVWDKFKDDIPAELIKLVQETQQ

| SMILES | X-ray crystal structure (1.89 Å), open conformation; no significant DSF shift at |
| --- | --- |
| O=S(=O)(O)CCN1CCN(CCO)CC1 [HEPES, 4-(2-hydroxyethyl)-1-piperazineethanesulfonic acid] | we were able to confidently model HEPES and MES buffer constituents from the crystallisation conditions into the densities |

target: T1, OaIseP (isethionate-specific TRAP substrate-binding protein IseP); test: biochemical; set-up: gene dctP; details: not given
Target sequence in this assay (Q312S0 24-336 limits assumed): as above

| Kd [nM] | SMILES |
| --- | --- |
| 950 | O=S(=O)(O)CCO [isethionate, 2-hydroxyethane sulfonate] |

target: T1, OaIseP (isethionate-specific TRAP substrate-binding protein IseP); test: not given; set-up: gene dctP; without the native signal peptide; N-terminal His-tag removed with HRV 3C protease; DSF thermal shift with SYPRO Orange, PM4A Biolog compound screen, change of derivative melting temperature; details: PM4A Biolog screen, compound concentration not disclosed; binder
Target sequence in this assay (Q312S0 24-336): as the sequence (Q312S0 24-336 limits assumed) above

| ΔTmD (°C) | SMILES |
| --- | --- |
| 0.60 ± 0.38 | NC(=O)CCCCC1CCSS1 (racemic) [DL-lipoamide] |
| 1.14 ± 0.17 | N[C@@H](CS)C(=O)NCC(=O)O [Cys-Gly] |
| 1.14 ± 0.17 | N[C@H](CS)C(=O)O [D-cysteine] |
| 0.92 ± 0.26 | O=P(O)(O)O[C@H]1O[C@H](CO)[C@@H](O)[C@H](O)[C@H]1O [D-glucose-1-phosphate] |
| -0.85 ± 0.37 | O=C[C@H](O)[C@@H](O)[C@H](O)[C@H](O)COP(=O)(O)O [D-glucose-6-phosphate] |
| 0.69 ± 0.31 | O=P(O)(O)OC1O[C@H](CO)[C@@H](O)[C@H](O)[C@@H]1O (stereo partly drawn) [D-mannose-1-phosphate] |
| -0.09 ± 0.47 | O=P(O)(O)OC[C@H]1OC(O)[C@@H](O)[C@@H](O)[C@@H]1O (stereo partly drawn) [D-mannose-6-phosphate] |
| -0.62 ± 0.38 | CSCC[C@@H](N)C(=O)O [D-methionine] |
| -0.01 ± 0.18 | CSCC[C@H](NC(=O)CN)C(=O)O [Gly-Met] |
| 0.11 ± 0.28 | N[C@@H](CS(=O)(=O)O)C(=O)O [L-cysteic acid] |
| 0.53 ± 0.00 | N[C@@H](CS(=O)O)C(=O)O [L-cysteine sulfinate] |
| -0.68 ± 0.11 | N[C@@H](CS)C(=O)O [L-cysteine] |
| 0.44 ± 0.13 | CS(=O)(=O)CC[C@H](N)C(=O)O [L-methionine sulfone] |
| 0.29 ± 0.11 | C[S+]([O-])CC[C@H](N)C(=O)O (stereo partly drawn) [L-methionine sulfoxide] |
| -0.92 ± 0.37 | CSCC[C@H](N)C(=O)O [L-methionine] |
| -0.64 ± 0.24 | CC(=O)N[C@@H](CS)C(=O)O [N-acetyl-L-cysteine] |
| 0.05 ± 0.42 | N[C@H](COP(=O)(O)O)C(=O)O [O-phospho-D-serine] |
| 0.87 ± 0.11 | N[C@H](Cc1ccc(OP(=O)(O)O)cc1)C(=O)O [O-phospho-D-tyrosine] |

| ΔTmD (°C) | SMILES |
| --- | --- |
| -0.62 ± 0.28 | C[C@@H](OP(=O)(O)O)[C@H](N)C(=O)O [O-phospho-L-threonine] |
| -0.73 ± 0.33 | N[C@@H](Cc1ccc(OP(=O)(O)O)cc1)C(=O)O [O-phospho-L-tyrosine] |
| -0.41 ± 0.48 | CSC[C@H](N)C(=O)O [S-methyl-L-cysteine] |
| -0.30 ± 0.29 | O=P(O)(O)OC(CO)CO [b-glycerol phosphate] |
| 0.41 ± 0.46 | CCCCS(=O)(=O)O [butane sulfonate] |
| -0.49 ± 0.28 | NC(=O)OP(=O)(O)O [carbamoyl phosphate] |
| 0.61 ± 0.21 | N[C@@H](CCSC[C@H](N)C(=O)O)C(=O)O [cystathionine] |
| 0.35 ± 0.00 | NCCS [cysteamine] |
| -0.67 ± 0.37 | N[C@@H](CCC(=O)N[C@@H](CS)C(=O)NCC(=O)O)C(=O)O [glutathione] |
| -0.68 ± 0.46 | NCCS(=O)O [hypotaurine] |
| 0.46 ± 0.33 | O=P(O)(O)O[C@H]1[C@H](OP(=O)(O)O)[C@@H](OP(=O)(O)O)[C@H](OP(=O)(O)O)[C@@H](OP(=O)(O)O)[C@H]1OP(=O)(O)O [inositol hexaphosphate] |
| 6.52 ± 0.18 | O=S(=O)(O)CCO [isethionate, 2-hydroxyethane sulfonate] |
| -0.46 ± 0.10 | N[C@@H](CSC[C@H](N)C(=O)O)C(=O)O [lanthionine] |
| 0.23 ± 0.28 | CS(=O)(=O)O [methane sulfonic acid] |
| 0.41 ± 0.40 | CN(CC(=O)O)C(=N)NP(=O)(O)O [phospho-creatine] |
| 0.31 ± 0.21 | O=C(O)COP(=O)(O)O [phospho-glycolic acid] |
| -0.63 ± 0.24 | C=C(OP(=O)(O)O)C(=O)O [phosphoenolpyruvate] |

| SMILES | ΔTmD (°C) |
| --- | --- |
| N[C@@H](CSCSC[C@H](N)C(=O)O)C(=O)O [L-djenkolic acid] | -0.32 ± 0.28 |
| O=S1(=O)CCCC1 [tetramethylene sulfone] | 0.23 ± 0.11 |
| NC(N)=S [thiourea] | -0.73 ± 0.31 |

target: T1, OaIseP (isethionate-specific TRAP substrate-binding protein IseP); test: X-ray crystal structure ([…] Å), open conformation; no significant DSF shift at […]; set-up: gene dctP; details: not given; remark: another data set of the same source
Target sequence in this assay (Q312S0 24-336 limits assumed): as above

| SMILES | X-ray crystal structure (1.65 Å), open conformation; no significant DSF shift at |
| --- | --- |
| O=S(=O)(O)CCN1CCOCC1 [MES, 2-(N-morpholino)ethanesulfonic acid] | In both HEPES- and MES-bound structures, the sulfonate groups form a salt bridge to Arg177 |
